Data reported in patent publication US12064413B2, “Methods of treating melanoma with S-equol” (The Board of Regents of the University of Texas System, priority 2018, dated 2024).
“Also recorded” adds a separate entry of the source. Like-named read-outs stand apart in the source and are kept apart here.

Experiments:
B16 cells = assay: B16 tumor growth in mice with daily subcutaneous S-equol (Example 6); format: in vivo; settings: S-equol 20 or 60 mg/kg per day s.c. vs PBS vehicle; start at tumor mass 50 to 80 mm^3
Description: Further work in a preclinical animal model supports the notion of using S-cquol to treat melanoma. In immunocompromised mouse experiments, using B16, a murine tumor cell line know to be useful to study human melanoma metastasis and solid tumor formation, growth of tumors is suppressed with S-equol treatment compared to control. 0.5×10^6 B16 cells are injected into normal BL mice. When the tumor masses reach 50 to 80 mm^3 (about one week after the inoculation), the mice are given daily subcutaneous injections of S-equol (20 or 60 mg/kg per day) or PBS as a vehicle control. Tumor development is followed by caliper measurements along two orthogonal axes: length (L) and width (W) and volume (V) is estimated by the formula V=[L×(W^2)]/2. Tumors harvested from mice are fixed in 10% neutral-buffered formalin, dehydrated, embedded in paraffin, and sectioned at 3 μm thickness. Representative tumor sections from vehicle control and S-equol-treated mice are tested for Ki-67 expression to assess cell proliferation, and for ERβ pY36. Statistical significance in the experiments is assessed by two-tailed Student's t test. In all assays, p<0.05 is considered statistically significant.

cytochrome oxidase (COX) = settings: brains from ovariectomized mice; cited from earlier work
rat hippocampal neurons = settings: cited from earlier work
melanoma = assay: Pilot biomarker clinical study of Ki67 in melanoma subjects (Example 7); format: in vivo, human; settings: oral S-equol 50 mg twice daily for 10-21 days; 20 subjects with melanoma
Description: A pilot biomarker clinical study is performed in 20 subjects with documented melanoma to determine the effect of the ERβ agonist S-equol on Ki67 an indicator of tumor cell proliferation. Tumor cell proliferation is measured by immunohistological staining for Ki-67. Ki-67 is encoded by the gene MKI67 gene and is required to maintain individual mitotic chromosomes dispersed in the cytoplasm following nuclear envelope disassembly. Measuring the fraction of Ki-67-positive cells in a tumor is known to be a reliable parameter for assessing cancer patient prognosis. Subjects with TNBC are known to have very high levels of Ki67.
Patients enrolled in the study receive a history, physical, laboratory assessment, radiological imaging, and diagnostic biopsies. Immunohistochemistry (IHC) of Ki67 (proliferation marker), total ERβ, and pY36-ERβ (phosphorylated ERβ), B7H1 (also known as PDL-1) and MIA and S100B are conducted using core needle biopsy tissue samples prior to treatment. Patients are given oral S-equol 50 mg, twice daily for approximately two weeks (10-21 days) prior to the scheduled oncologic surgeries or start of primary systemic therapy. […]
A standard procedure for acquiring core biopsy is utilized for determining melanoma prior to enrollment. […] The tissue samples are sent for staining of total and pY36, ERβ and Ki67, and analyzed. […]

[1] = test system: B16 melanoma tumor cell line; assay: B16 melanoma tumor challenge in mice, S-equol and anti-PD-1 antibody alone or combined; format: in vivo; settings: for tumor volume: anti-PD-1 250 μg every 3 days i.p., S-equol 50 mg/kg per day oral gavage
Description: FIG. 4. A schema for combination therapy. Mice were administered one of: (1) vehicle+rat IgG2a; (2)S-equol+rat IgG2a; (3) vehicle+anti-PD-1 antibody; or (4)S-equol+anti-PD-1 antibody. Mice receiving anti-PD-1 antibody were given 250 μg every 3 days, intraperitoneally, and mice receiving S-equol were given 50 mg/kg per day by oral gavage. Treatment started 7 days after tumor challenge with B16 melanoma.
Melanoma cell line B16 was tested to determine the effects of a PD-1 inhibitor, S-equol and a combination of the two therapies on tumor growth. This experimental design includes four arms: (1) controls, (2) αPD-1, (3)S-cquol, and (4) αPD-1+S-equol (FIG. 4) by injecting into mice 5×10^5 cells subcutaneously. Antibodies were administered α-PD-1: 250 μg/mice by i.p. injection every 3 days and S-equol was administered at 50 mg/kg/day by oral gavage. Treatment began 7 day after tumor challenge. Tumor growth trajectories were compared within treated mice using a repeated measures linear mixed model. The primary outcome was the logarithm of the tumor size, and the test statistic is the treatment X time interaction. Tumors were measured about 10 times. The number of recipient mice use used in the studies (n=6 per group) was based on the above study.

[2] = test system: triple negative breast cancer (TNBC); settings: cited from earlier work

Q: With `Oc1ccc([C@H]2COc3cc(O)ccc3C2)cc1` [S-equol] as the compound, how does the growth of tumors (B16 cells) read?
A: suppressed

Q: And the COX1 protein levels (cytochrome oxidase (COX))?
A: increase

Q: And the “cytochrome oxidase (COX) activity” value (cytochrome oxidase (COX))?
A: increase

Q: What about the “respiratory and maximal glycolysis fluxes” value (rat hippocampal neurons) of the same compound?
A: increase

Q: And the “Ki67 (tumor cell proliferation, IHC) pre- vs post-treatment” value (melanoma)?
A: measurable decrease; also recorded: measurable decline

Q: And the “effect on anticancer immunotherapy” value ([1]; Example 4, FIGS. 6-9, n=6 per group)?
A: boost anticancer immunotherapy

Q: What about the tumor volume ([1]; FIG. 6, over 12 days post-challenge) of the same compound?
A: reduce tumor volume compared to control

Q: What about the tumor volume ([1]; FIG. 7, over 19 days post-challenge) of the same compound?
A: reduce tumor volume compared to control

Q: What about the tumor weight ([1]; FIG. 8A, mice challenged with B16 melanoma) of the same compound?
A: reduce tumor weight compared to control

Q: What about the tumor volume ([1]; FIG. 9A, over 16 days (title) / 12 days post-challenge) of the same compound?
A: reduce tumor volume compared to control

Q: With avelumab as the compound, how does the response rate ([2]; 168 TNBC tumors unselected for PD-L1 expression) read?
A: 8.6%

Q: For pembrolizumab, which response rate ([2]; Phase 1 study, 27 women with heavily pretreated, chemotherapy resistant, metastatic TNBC that expressed PD-L1) is on record?
A: 18.4%

Q: For atezolizumab, which response rate ([2]; 21 evaluable, PD-L1 expressing TNBC tumors) is on record?
A: 19%
